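Abbreviation: GI50, concentration required for 50% inhibition of growth. TGI denotes the concentration required for complete inhibition of growth.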
Legend:
Experiment in all cases: DTP human tumour cell line panel, 384-well format
BT-549 breast = tested on: BT-549 breast
RXF 393 renal = tested on: RXF 393 renal
HCT-15 colon = tested on: HCT-15 colon
SF-539 CNS = tested on: SF-539 CNS
T-47D breast = tested on: T-47D breast
UACC-62 melanoma = tested on: UACC-62 melanoma
SNB-75 CNS = tested on: SNB-75 CNS
NCI-H23 lung = tested on: NCI-H23 lung
A498 renal = tested on: A498 renal
OVCAR-3 ovarian = tested on: OVCAR-3 ovarian
MALME-3M melanoma = tested on: MALME-3M melanoma
MDA-MB-231 breast = tested on: MDA-MB-231 breast
HCC-2998 colon = tested on: HCC-2998 colon
IGROV1 ovarian = tested on: IGROV1 ovarian
K-562 leukemia = tested on: K-562 leukemia
HCT-116 colon = tested on: HCT-116 colon
NCI-H322M lung = tested on: NCI-H322M lung
COLO 205 colon = tested on: COLO 205 colon
SW-620 colon = tested on: SW-620 colon
MOLT-4 leukemia = tested on: MOLT-4 leukemia
SF-268 CNS = tested on: SF-268 CNS
NCI-H226 lung = tested on: NCI-H226 lung
SF-295 CNS = tested on: SF-295 CNS
MDA-MB-468 breast = tested on: MDA-MB-468 breast
OVCAR-4 ovarian = tested on: OVCAR-4 ovarian
HOP-92 NSCLC = tested on: HOP-92 NSCLC
NCI-H460 NSCLC = tested on: NCI-H460 NSCLC
CAKI-1 renal = tested on: CAKI-1 renal
OVCAR-5 ovarian = tested on: OVCAR-5 ovarian
MDA-MB-435 melanoma = tested on: MDA-MB-435 melanoma
OVCAR-8 ovarian = tested on: OVCAR-8 ovarian
SK-MEL-5 melanoma = tested on: SK-MEL-5 melanoma
NCI/ADR-RES ovarian = tested on: NCI/ADR-RES ovarian
EKVX NSCLC = tested on: EKVX NSCLC
U251 glioblastoma = tested on: U251 glioblastoma
TK-10 renal = tested on: TK-10 renal
PC-3 prostate = tested on: PC-3 prostate
SK-MEL-2 melanoma = tested on: SK-MEL-2 melanoma
SNB-19 CNS = tested on: SNB-19 CNS
HS 578T breast = tested on: HS 578T breast
ACHN renal = tested on: ACHN renal
DU-145 prostate = tested on: DU-145 prostate
HT29 colon = tested on: HT29 colon
HOP-62 NSCLC = tested on: HOP-62 NSCLC
RPMI-8226 leukemia = tested on: RPMI-8226 leukemia
UACC-257 melanoma = tested on: UACC-257 melanoma
SR leukemia = tested on: SR leukemia

`Cc1cc(Nc2ncc(Cl)c(Nc3ccccc3S(=O)(=O)C(C)C)n2)c(OC(C)C)cc1C1CCNCC1` showed a GI50 (BT-549 breast) of 1880 nM, a TGI (BT-549 breast) of 3300 nM and a GI50 (RXF 393 renal) of 1900 nM. For the same molecule, the TGI (RXF 393 renal) was 3310 nM, the GI50 (HCT-15 colon) was 648 nM and the TGI (HCT-15 colon) was 1760 nM. For the same molecule, the GI50 (SF-539 CNS) was 1870 nM, the TGI (SF-539 CNS) was 3290 nM and the GI50 (T-47D breast) was 1400 nM. For the same molecule, the TGI (T-47D breast) was 2710 nM, the GI50 (UACC-62 melanoma) was 1040 nM and the TGI (UACC-62 melanoma) was 2320 nM. For the same molecule, the GI50 (SNB-75 CNS) was 1860 nM, the TGI (SNB-75 CNS) was 3270 nM and the GI50 (NCI-H23 lung) was 1270 nM. It also gave a TGI (NCI-H23 lung) of 2550 nM, a GI50 (A498 renal) of 1620 nM and a TGI (A498 renal) of 2990 nM. It also gave a GI50 (OVCAR-3 ovarian) of 1590 nM, a TGI (OVCAR-3 ovarian) of 2960 nM and a GI50 (MALME-3M melanoma) of 551 nM. For the same molecule, the TGI (MALME-3M melanoma) was 1720 nM, the GI50 (MDA-MB-231 breast) was 1480 nM and the TGI (MDA-MB-231 breast) was 2810 nM. The GI50 (HCC-2998 colon) was 202 nM, the TGI (HCC-2998 colon) was 552 nM and the GI50 (IGROV1 ovarian) was 1270 nM. The TGI (IGROV1 ovarian) was 2580 nM, the GI50 (K-562 leukemia) was 978 nM and the TGI (K-562 leukemia) was 2150 nM. It also gave a GI50 (HCT-116 colon) of 826 nM, a TGI (HCT-116 colon) of 2070 nM and a GI50 (NCI-H322M lung) of 1320 nM. For the same molecule, the TGI (NCI-H322M lung) was 2600 nM, the GI50 (COLO 205 colon) was 663 nM and the TGI (COLO 205 colon) was 1900 nM. The GI50 (SW-620 colon) was 1060 nM, the TGI (SW-620 colon) was 2330 nM and the GI50 (MOLT-4 leukemia) was 711 nM. It also gave a TGI (MOLT-4 leukemia) of 1980 nM, a GI50 (SF-268 CNS) of 1700 nM and a TGI (SF-268 CNS) of 3080 nM. The GI50 (NCI-H226 lung) was 929 nM, the TGI (NCI-H226 lung) was 2240 nM and the GI50 (SF-295 CNS) was 1700 nM. For the same molecule, the TGI (SF-295 CNS) was 3090 nM, the GI50 (MDA-MB-468 breast) was 1100 nM and the TGI (MDA-MB-468 breast) was 2340 nM. For the same molecule, the GI50 (OVCAR-4 ovarian) was 1990 nM, the TGI (OVCAR-4 ovarian) was 3420 nM and the GI50 (HOP-92 NSCLC) was 1210 nM. For the same molecule, the TGI (HOP-92 NSCLC) was 2450 nM, the GI50 (NCI-H460 NSCLC) was 1080 nM and the TGI (NCI-H460 NSCLC) was 2370 nM. It also gave a GI50 (CAKI-1 renal) of 1750 nM, a TGI (CAKI-1 renal) of 3140 nM and a GI50 (OVCAR-5 ovarian) of 1510 nM. It also gave a TGI (OVCAR-5 ovarian) of 2850 nM, a GI50 (MDA-MB-435 melanoma) of 1270 nM and a TGI (MDA-MB-435 melanoma) of 2550 nM. It also gave a GI50 (OVCAR-8 ovarian) of 1550 nM, a TGI (OVCAR-8 ovarian) of 2900 nM and a GI50 (SK-MEL-5 melanoma) of 668 nM. The TGI (SK-MEL-5 melanoma) was 1280 nM, the GI50 (NCI/ADR-RES ovarian) was 1540 nM and the TGI (NCI/ADR-RES ovarian) was 2890 nM. It also gave a GI50 (EKVX NSCLC) of 1290 nM, a TGI (EKVX NSCLC) of 2570 nM and a GI50 (U251 glioblastoma) of 1780 nM. It also gave a TGI (U251 glioblastoma) of 3190 nM, a GI50 (TK-10 renal) of 1570 nM and a TGI (TK-10 renal) of 2920 nM. For the same molecule, the GI50 (PC-3 prostate) was 1390 nM, the TGI (PC-3 prostate) was 2710 nM and the GI50 (SK-MEL-2 melanoma) was 1020 nM. The TGI (SK-MEL-2 melanoma) was 2190 nM, the GI50 (SNB-19 CNS) was 1830 nM and the TGI (SNB-19 CNS) was 3240 nM. For the same molecule, the GI50 (HS 578T breast) was 1640 nM, the TGI (HS 578T breast) was 3000 nM and the GI50 (ACHN renal) was 1770 nM. For the same molecule, the TGI (ACHN renal) was 3170 nM, the GI50 (DU-145 prostate) was 1560 nM and the TGI (DU-145 prostate) was 2920 nM. For the same molecule, the GI50 (HT29 colon) was 408 nM, the TGI (HT29 colon) was 1460 nM and the GI50 (HOP-62 NSCLC) was 1710 nM. The TGI (HOP-62 NSCLC) was 3100 nM, the GI50 (RPMI-8226 leukemia) was 720 nM and the TGI (RPMI-8226 leukemia) was 1980 nM. For the same molecule, the GI50 (UACC-257 melanoma) was 777 nM, the TGI (UACC-257 melanoma) was 1530 nM and the GI50 (SR leukemia) was 13.9 nM. The TGI (SR leukemia) was 26.1 nM.
